Source: PMC4488483, “Reversible Oxidation of a Conserved Methionine in the Nuclear Export Sequence Determines Subcellular Distribution and Activity of the Fungal Nitrate Regulator NirA” (PLoS Genetics, 2015)

Columns and labels:
FmoB [1] = target: T1, FmoB (Aspergillus nidulans, UniProt Q5B5S0); assay: UV-visible absorbance spectrum of FAD saturated enzyme; assay type: binding; conditions: purified recombinant FmoB
T1 construct: gene ANIA_04110; complete fmoB gene from cDNA, expressed in E. coli, HIS-Select and size exclusion purified, ~60 kDa on SDS-PAGE, FAD saturated
T1 sequence (Q5B5S0 1-492): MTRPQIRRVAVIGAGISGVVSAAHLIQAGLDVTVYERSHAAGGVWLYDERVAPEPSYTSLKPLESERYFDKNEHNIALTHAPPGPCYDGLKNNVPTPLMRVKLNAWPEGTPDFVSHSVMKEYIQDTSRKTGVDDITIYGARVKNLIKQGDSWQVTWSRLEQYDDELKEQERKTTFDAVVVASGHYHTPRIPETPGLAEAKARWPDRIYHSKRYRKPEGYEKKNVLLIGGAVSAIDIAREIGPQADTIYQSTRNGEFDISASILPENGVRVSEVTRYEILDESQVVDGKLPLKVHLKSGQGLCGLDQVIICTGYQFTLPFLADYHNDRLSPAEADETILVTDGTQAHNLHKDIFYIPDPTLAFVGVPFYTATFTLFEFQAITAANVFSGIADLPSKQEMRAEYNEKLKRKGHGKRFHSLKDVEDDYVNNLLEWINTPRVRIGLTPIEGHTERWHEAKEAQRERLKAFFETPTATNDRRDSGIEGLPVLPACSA

FmoB [2] = target: T1, FmoB; assay: HPLC of L-methionine sulfoxide formed; assay type: biochemical; conditions: NADPH-dependent; up to 5 mM methionine; low rate
FmoB [3] = target: T1, FmoB; assay: NADPH consumption, absorbance at […] nm; assay type: biochemical; conditions: 2 uM FmoB, 200 uM NADPH, 2 mM substrate

Cc1cc2nc3c(=O)[nH]c(=O)nc-3n(C[C@H](O)[C@H](O)[C@H](O)COP(=O)(O)OP(=O)(O)OC[C@H]3O[C@@H](n4cnc5c(N)ncnc54)[C@H](O)[C@@H]3O)c2cc1C [FAD]
UV-visible absorbance spectrum of FAD saturated enzyme (FmoB [1]): An UV-visible absorbance spectra of FAD saturated FmoB is shown as inset

CSCC[C@H](N)C(=O)O [L-methionine]
HPLC of L-methionine sulfoxide formed (FmoB [2]): it is able to convert free methionine to the sulfoxide form

N[C@@H](CS)C(=O)O [cysteine]
NADPH consumption, absorbance at 340 nm (FmoB [3]): free cysteine, dithiothreitol (DTT) or β-mercaptoethanol were favourable substrates for FmoB
